One assay deals with CFTR. In words: cAMP-stimulated iodide efflux from stably transfected cells. The format is cell-based, baby hamster kidney (BHK) cells. The settings on record: for peak iodide efflux: compared to wild-type CFTR. From the text: Since CFTR functions as a chloride channel, responsiveness of the tagged channels to PKA was examined by comparing cAMP-stimulated iodide efflux from cells stably transfected with 1) wild-type CFTR, 2) CFTR with a polyhistidine tag, 3) wild-type CFTR bearing both polyhistidine and biotinylation tags or 4) a ΔF508 CFTR construct that was identical to 3) except for deletion of phenylalanine 508. […] Therefore, similar to epitope-tagging of the fourth extracellular loop (Benharouga, et al. (2003) J. Biol. Chem. 278:22079-22089; Schultz, et al. (1997) Am. J. Physiol. Cell Physiol. 273:C2080-C2089), iodide efflux responses to PKA were preserved after insertion of a biotinylation target sequence.
Iodide effluxes were measured using standard methods (Cormet-Boyaka, et al. (2002) Proc. Natl. Acad. Sci. USA 99:12477-12482; Cormet-Boyaka, et al. (2002) Proc. Natl. Acad. Sci. USA 99:12477-12482). Briefly, cells were incubated with iodide loading buffer (136 mM NaI, 3 mM KNO3, 2 mM Ca(NO3)2, 11 mM glucose and 20 mM HEPES, pH 7.4) for 1 hour at room temperature. Extracellular NaI was removed by rinsing with iodide-free efflux buffer (same as loading buffer except NaNO3 replaced NaI). Samples were collected by removing the efflux buffer at 1 minute intervals and replacing it with fresh solution. The first three samples established the baseline efflux rate, then cpt-cAMP was added and samples were collected at 1 minute intervals in the continuous presence of cpt-cAMP for 15 minutes. Iodide was measured using an iodide sensitive electrode (Orion Research, Inc., Boston, Mass., USA) and converted to nmoles released/minutes.

Assay [1] addresses T1, BirA (Escherichia coli, UniProt P06709). To be noted: estimated from initial rate of biotinyl-5′-AMP synthesis; read-out: KM for ATP; cited from earlier work.
For assay [2], the target named is T1, BirA. To be noted: read-out: equilibrium dissociation constant; cited from earlier work.

The values below come from US20050191710A1, “Method for labeling a membrane-localized protein” (priority 2004, published 2005).

T1 sequence (P06709 whole entry): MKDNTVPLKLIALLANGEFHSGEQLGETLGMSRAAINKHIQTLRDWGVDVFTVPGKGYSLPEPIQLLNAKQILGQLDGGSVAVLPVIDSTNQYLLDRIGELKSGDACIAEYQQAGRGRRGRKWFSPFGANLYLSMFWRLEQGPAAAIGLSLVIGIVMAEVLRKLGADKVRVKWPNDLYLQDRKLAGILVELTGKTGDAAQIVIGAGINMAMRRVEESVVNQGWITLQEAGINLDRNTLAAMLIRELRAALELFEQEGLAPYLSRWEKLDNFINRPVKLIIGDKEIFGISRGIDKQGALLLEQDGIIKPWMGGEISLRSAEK

In the case of “wild-type CFTR bearing both polyhistidine and biotinylation tags: CFTR-biotintag with ten histidines at the C-terminus for purification on nickel-NTA beads”, in the assay with CFTR (cAMP-stimulated), the “delay of iodide efflux compared to wild-type CFTR” value is ~1 min and the peak iodide efflux result is reported as “not diminished”.
What is called Km is the concentration of substrate that gives half-maximal velocity. For the compound `Nc1ncnc2c1ncn2[C@@H]1O[C@H](COP(=O)(O)OP(=O)(O)OP(=O)(O)O)[C@@H](O)[C@H]1O` [ATP], on BirA [1], the Km was 3000 µM.
For `O=C(O)CCCC[C@@H]1SC[C@@H]2NC(=O)N[C@@H]21` [biotin], the Kd on BirA [2] is 10 to 100 nM.
Take “CFTR with a polyhistidine tag: CFTR with glycine and ten histidines added to the C-terminus [reference compound]”: the peak iodide efflux result in the assay with CFTR (cAMP-stimulated) was “not diminished”.
For the compound “ΔF508CFTR-biotintag: ΔF508 CFTR construct with biotinylation tag, deletion of phenylalanine 508 (disease mutation)”, the cAMP-stimulated iodide efflux result in the assay on CFTR is reported as “not detected”.
